pKi: −log10 of the molar value.
Molecular target: Bcl-2 protein (Homo sapiens (Human), UniProt P10415)
Assay: Bcl-2 binding TR-FRET (Time-Resolved Fluorescence-Resonance-Energy-Transfer) assay
Details: inhibition constant for binding to Bcl-2 protein
Excerpt: The smaller the Ki value, the greater is the binding affinity.

Bcl-2 protein, sequence (P10415 whole entry): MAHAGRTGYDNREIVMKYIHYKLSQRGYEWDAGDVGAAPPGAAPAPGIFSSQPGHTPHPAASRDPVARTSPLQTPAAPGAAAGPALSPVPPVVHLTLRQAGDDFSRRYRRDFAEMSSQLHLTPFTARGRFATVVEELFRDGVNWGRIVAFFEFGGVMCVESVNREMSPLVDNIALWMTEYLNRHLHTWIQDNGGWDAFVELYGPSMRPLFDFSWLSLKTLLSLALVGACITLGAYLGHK

| SMILES | pKi |
| --- | --- |
| CC1(C)CCC(CN2CCN(c3ccc(C(=O)NS(=O)(=O)c4ccc(NC(=O)N5CCOCC5)c([N+](=O)[O-])c4)c(Oc4cnc5[nH]ccc5c4)c3)CC2)=C(c2ccc(Cl)cc2)C1 [Compound 373, N-(4-{[4-(4-{[2-(4-chlorophenyl)-4,4-dimethylcyclohex-1-en-1-yl]methyl}piperazin-1-yl)-2-(1H-pyrrolo[2,3-b]pyridin-5-yloxy)benzoyl]sulfamoyl}-2-nitrophenyl)morpholine-4-carboxamide] | > 12.00 |
| COCC1CCC(CNc2ccc(S(=O)(=O)NC(=O)c3ccc(N4CCN(CC5=C(c6ccc(Cl)cc6)CC(C)(C)CC5)CC4)cc3Oc3cnc4[nH]ccc4c3)cc2[N+](=O)[O-])CC1 (stereo not shown) [Compound 374, 4-(4-{[2-(4-chlorophenyl)-4,4-dimethylcyclohex-1-en-1-yl]methyl}piperazin-1-yl)-N-{[4-({[4-(methoxymethyl)cyclohexyl]methyl}amino)-3-nitrophenyl]sulfonyl}-2-(1H-pyrrolo[2,3-b]pyridin-5-yloxy)benzamide] | > 12.00 |
| CC1(C)CCC(CN2CCN(c3ccc(C(=O)NS(=O)(=O)c4cnc(NC[C@H]5CC[C@](C)(O)CC5)c([N+](=O)[O-])c4)c(Oc4cnc5[nH]ccc5c4)c3)CC2)=C(c2ccc(Cl)cc2)C1 [Compound 376, 4-(4-{[2-(4-chlorophenyl)-4,4-dimethylcyclohex-1-en-1-yl]methyl}piperazin-1-yl)-N-[(6-{[(cis-4-hydroxy-4-methylcyclohexyl)methyl]amino}-5-nitropyridin-3-yl)sulfonyl]-2-(1H-pyrrolo[2,3-b]pyridin-5-yloxy)benzamide] | > 12.00 |
| COC1(C)CCC(c2ccc(Cl)cc2)=C(CN2CCN(c3ccc(C(=O)NS(=O)(=O)c4ccc(NC[C@H]5CC[C@@](C)(O)CC5)c([N+](=O)[O-])c4)c(Oc4cnc5[nH]ccc5c4)c3)CC2)C1 (stereo partly drawn) [Compound 377, 4-(4-{[2-(4-chlorophenyl)-5-methoxy-5-methylcyclohex-1-en-1-yl]methyl}piperazin-1-yl)-N-[(4-{[(trans-4-hydroxy-4-methylcyclohexyl)methyl]amino}-3-nitrophenyl)sulfonyl]-2-(1H-pyrrolo[2,3-b]pyridin-5-yloxy)benzamide] | > 12.00 |
| COC1(C)CCC(c2ccc(Cl)cc2)=C(CN2CCN(c3ccc(C(=O)NS(=O)(=O)c4ccc(NCC5CCOCC5)c([N+](=O)[O-])c4)c(Oc4cnc5[nH]ccc5c4)c3)CC2)C1 (stereo not shown) [Compound 378, 4-(4-{[2-(4-chlorophenyl)-5-methoxy-5-methylcyclohex-1-en-1-yl]methyl}piperazin-1-yl)-N-({3-nitro-4-[(tetrahydro-2H-pyran-4-ylmethyl)amino]phenyl}sulfonyl)-2-(1H-pyrrolo[2,3-b]pyridin-5-yloxy)benzamide] | > 12.00 |

Tested on: not listed separately
Assay: log D at pH 7.4 by an HPLC method
Format: physicochemical
Details: not given
Excerpt: Table 2 below presents data for log D (a parameter related to lipophilicity) at pH 7.4, as determined by an HPLC method, for representative compounds.

| SMILES | chromatographic logD |
| --- | --- |
| CC1(C)CCC(CN2CCN(c3ccc(C(=O)NS(=O)(=O)c4ccc(NCC5CCOCC5)c([N+](=O)[O-])c4)c(Oc4cnc5[nH]ccc5c4)c3)CC2)=C(c2ccc(Cl)cc2)C1 [Compound 5, 4-(4-{[2-(4-chlorophenyl)-4,4-dimethylcyclohex-1-en-1-yl]methyl}piperazin-1-yl)-N-({3-nitro-4-[(tetrahydro-2H-pyran-4-ylmethyl)amino]phenyl}sulfonyl)-2-(1H-pyrrolo[2,3-b]pyridin-5-yloxy)benzamide] | 5.37 |
| CN1CCN(Nc2ccc(S(=O)(=O)NC(=O)c3ccc(N4CCN(CC5=C(c6ccc(Cl)cc6)CC(C)(C)CC5)CC4)cc3Oc3cnc4[nH]ccc4c3)cc2[N+](=O)[O-])CC1 [Compound 6, 4-(4-{[2-(4-chlorophenyl)-4,4-dimethylcyclohex-1-en-1-yl]methyl}piperazin-1-yl)-N-({4-[(4-methylpiperazin-1-yl)amino]-3-nitrophenyl}sulfonyl)-2-(1H-pyrrolo[2,3-b]pyridin-5-yloxy)benzamide] | 5.74 |
| CC1(C)CCC(CN2CCN(c3ccc(C(=O)NS(=O)(=O)c4ccc(N[C@H]5CC[C@H](N6CCOCC6)CC5)c([N+](=O)[O-])c4)c(Oc4cnc5[nH]ccc5c4)c3)CC2)=C(c2ccc(Cl)cc2)C1 [Compound 9, trans-4-(4-{[2-(4-chlorophenyl)-4,4-dimethylcyclohex-1-en-1-yl]methyl}piperazin-1-yl)-N-({4-[(4-morpholin-4-ylcyclohexyl)amino]-3-nitrophenyl}sulfonyl)-2-(1H-pyrrolo[2,3-b]pyridin-5-yloxy)benzamide] | 5.71 |
| CC1(C)CCC(CN2CCN(c3ccc(C(=O)NS(=O)(=O)c4ccc(NCC5CCOCC5)c([N+](=O)[O-])c4)c(Oc4ccc5[nH]ccc5c4)c3)CC2)=C(c2ccc(Cl)cc2)C1 [Compound 18, 4-(4-{[2-(4-chlorophenyl)-4,4-dimethylcyclohex-1-en-1-yl]methyl}piperazin-1-yl)-2-(1H-indol-5-yloxy)-N-({3-nitro-4-[(tetrahydro-2H-pyran-4-ylmethyl)amino]phenyl}sulfonyl)benzamide] | 6.35 |
| COCCNc1ccc(S(=O)(=O)NC(=O)c2ccc(N3CCN(CC4=C(c5ccc(Cl)cc5)CC(C)(C)CC4)CC3)cc2Oc2ccc3[nH]ccc3c2)cc1[N+](=O)[O-] [Compound 20, 4-(4-{[2-(4-chlorophenyl)-4,4-dimethylcyclohex-1-en-1-yl]methyl}piperazin-1-yl)-2-(1H-indol-5-yloxy)-N-({4-[(2-methoxyethyl)amino]-3-nitrophenyl}sulfonyl)benzamide] | 6.24 |
| O=C(NS(=O)(=O)c1ccc(NCC2CCOCC2)c([N+](=O)[O-])c1)c1ccc(N2CCN(Cc3ccccc3-c3ccc(Cl)cc3)CC2)cc1Oc1ccc2[nH]ccc2c1 [Compound 87, 4-{4-[(4′-chloro-1,1′-biphenyl-2-yl)methyl]piperazin-1-yl}-2-(1H-indol-5-yloxy)-N-({3-nitro-4-[(tetrahydro-2H-pyran-4-ylmethyl)amino]phenyl}sulfonyl)benzamide] | 5.86 |
| CC1(C)CCC(CN2CCN(c3ccc(C(=O)NS(=O)(=O)c4ccc(NC5CCN(C6CCOCC6)CC5)c([N+](=O)[O-])c4)c(Oc4ccc5[nH]ccc5c4)c3)CC2)=C(c2ccc(Cl)cc2)C1 [Compound 89, 4-(4-{[2-(4-chlorophenyl)-4,4-dimethylcyclohex-1-en-1-yl]methyl}piperazin-1-yl)-2-(1H-indol-5-yloxy)-N-({3-nitro-4-[(1-tetrahydro-2H-pyran-4-ylpiperidin-4-yl)amino]phenyl}sulfonyl)benzamide] | 6.21 |
| CN1CCC(Nc2ccc(S(=O)(=O)NC(=O)c3ccc(N4CCN(CC5=C(c6ccc(Cl)cc6)CC(C)(C)CC5)CC4)cc3Oc3ccc4[nH]ccc4c3)cc2[N+](=O)[O-])CC1 [Compound 90, 4-(4-{[2-(4-chlorophenyl)-4,4-dimethylcyclohex-1-en-1-yl]methyl}piperazin-1-yl)-2-(1H-indol-5-yloxy)-N-({4-[(1-methylpiperidin-4-yl)amino]-3-nitrophenyl}sulfonyl)benzamide] | 6.69 |
| CN1CCN(Nc2ccc(S(=O)(=O)NC(=O)c3ccc(N4CCN(CC5=C(c6ccc(Cl)cc6)CC(C)(C)CC5)CC4)cc3Oc3ccc4[nH]ccc4c3)cc2[N+](=O)[O-])CC1 [Compound 91, 4-(4-{[2-(4-chlorophenyl)-4,4-dimethylcyclohex-1-en-1-yl]methyl}piperazin-1-yl)-2-(1H-indol-5-yloxy)-N-({4-[(4-methylpiperazin-1-yl)amino]-3-nitrophenyl}sulfonyl)benzamide] | 6.59 |
| CC1(C)CCC(CN2CCN(c3ccc(C(=O)NS(=O)(=O)c4ccc(OCC5COCCO5)c([N+](=O)[O-])c4)c(Oc4ccc5[nH]ccc5c4)c3)CC2)=C(c2ccc(Cl)cc2)C1 (stereo not shown) [Compound 92, 4-(4-{[2-(4-chlorophenyl)-4,4-dimethylcyclohex-1-en-1-yl]methyl}piperazin-1-yl)-N-{[4-(1,4-dioxan-2-ylmethoxy)-3-nitrophenyl]sulfonyl}-2-(1H-indol-5-yloxy)benzamide] | 5.6 |
| CC1(C)CCC(CN2CCN(c3ccc(C(=O)NS(=O)(=O)c4cnc(OCC5(F)CCOCC5)c(C(F)(F)F)c4)c(Oc4cnc5[nH]ccc5c4)c3)CC2)=C(c2ccc(Cl)cc2)C1 [Compound 208, 4-(4-{[2-(4-chlorophenyl)-4,4-dimethylcyclohex-1-en-1-yl]methyl}piperazin-1-yl)-N-{[6-[(4-fluorotetrahydro-2H-pyran-4-yl)methoxy]-5-(trifluoromethyl)pyridin-3-yl]sulfonyl}-2-(1H-pyrrolo[2,3-b]pyridin-5-yloxy)benzamide] | 5.57 |
| CC1(C)CCC(CN2CCN(c3ccc(C(=O)NS(=O)(=O)c4ccc(NCC5CCC(F)(F)CC5)c([N+](=O)[O-])c4)c(Oc4cnc5[nH]ccc5c4)c3)CC2)=C(c2ccc(Cl)cc2)C1 [Compound 239, 4-(4-{[2-(4-chlorophenyl)-4,4-dimethylcyclohex-1-en-1-yl]methyl}piperazin-1-yl)-N-[(4-{[(4,4-difluorocyclohexyl)methyl]amino}-3-nitrophenyl)sulfonyl]-2-(1H-pyrrolo[2,3-b]pyridin-5-yloxy)benzamide] | 5.92 |
| CC1(C)CCC(CN2CCN(c3ccc(C(=O)NS(=O)(=O)c4cnc(NCC5(F)CCOCC5)c(Cl)c4)c(Oc4cnc5[nH]ccc5c4)c3)CC2)=C(c2ccc(Cl)cc2)C1 [Compound 242, N-[(5-chloro-6-{[(4-fluorotetrahydro-2H-pyran-4-yl)methyl]amino}pyridin-3-yl)sulfonyl]-4-(4-{[2-(4-chlorophenyl)-4,4-dimethylcyclohex-1-en-1-yl]methyl}piperazin-1-yl)-2-(1H-pyrrolo[2,3-b]pyridin-5-yloxy)benzamide] | 5.51 |
| CC1(C)CCC(CN2CCN(c3ccc(C(=O)NS(=O)(=O)c4ccc(NC[C@H]5CC[C@H](C#N)CC5)c([N+](=O)[O-])c4)c(Oc4cnc5[nH]ccc5c4)c3)CC2)=C(c2ccc(Cl)cc2)C1 [Compound 276, 4-(4-{[2-(4-chlorophenyl)-4,4-dimethylcyclohex-1-en-1-yl]methyl}piperazin-1-yl)-N-[(4-{[(trans-4-cyanocyclohexyl)methyl]amino}-3-nitrophenyl)sulfonyl]-2-(1H-pyrrolo[2,3-b]pyridin-5-yloxy)benzamide] | 5.59 |

From patent US10213433B2 (AbbVie Inc., priority 2010, dated 2019)
